In one assay the test system is platelet aggregation. The settings on record: cited from earlier work.
Assay [1] addresses fixed activated platelets (Homo sapiens, UniProt P05106+P08514). Kind of assay: Platelet Aggregation Assay (fibrinogen-mediated aggregation of fixed-activated platelets). Format: cell-based. The settings on record: for IC50: fixed activated platelets, human fibrinogen 250 μg/ml, read-out: Inhibition of Fibrinogen Mediated Platelet Aggregation IC50; for inhibition at 25 µM: read-out: Inhibition of Fibrinogen Mediated Platelet Aggregation % inhibition at 25 μM. In short, it runs like this:
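Activated platelets fixed with 0.50% paraformaldehyde for 30 min at room temperature. They were then pre-incubated 1 min with test compound before aggregation was triggered by human fibrinogen at 250 μg/ml final. Aggregation recorded on an aggregometer.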

In assay [2] the target is thrombin-stimulated platelets (Homo sapiens, UniProt P05106+P08514). Nature of the assay: Fibrinogen-Binding Assay (125I-fibrinogen binding to platelets). The settings on record: 125I-fibrinogen 0.176 μmol/liter, thrombin-stimulated platelets; read-out: Inhibition of 125I-Fibrinogen Binding to Platelets IC50.
Chain of thrombin-stimulated platelets (P08514 32-1039): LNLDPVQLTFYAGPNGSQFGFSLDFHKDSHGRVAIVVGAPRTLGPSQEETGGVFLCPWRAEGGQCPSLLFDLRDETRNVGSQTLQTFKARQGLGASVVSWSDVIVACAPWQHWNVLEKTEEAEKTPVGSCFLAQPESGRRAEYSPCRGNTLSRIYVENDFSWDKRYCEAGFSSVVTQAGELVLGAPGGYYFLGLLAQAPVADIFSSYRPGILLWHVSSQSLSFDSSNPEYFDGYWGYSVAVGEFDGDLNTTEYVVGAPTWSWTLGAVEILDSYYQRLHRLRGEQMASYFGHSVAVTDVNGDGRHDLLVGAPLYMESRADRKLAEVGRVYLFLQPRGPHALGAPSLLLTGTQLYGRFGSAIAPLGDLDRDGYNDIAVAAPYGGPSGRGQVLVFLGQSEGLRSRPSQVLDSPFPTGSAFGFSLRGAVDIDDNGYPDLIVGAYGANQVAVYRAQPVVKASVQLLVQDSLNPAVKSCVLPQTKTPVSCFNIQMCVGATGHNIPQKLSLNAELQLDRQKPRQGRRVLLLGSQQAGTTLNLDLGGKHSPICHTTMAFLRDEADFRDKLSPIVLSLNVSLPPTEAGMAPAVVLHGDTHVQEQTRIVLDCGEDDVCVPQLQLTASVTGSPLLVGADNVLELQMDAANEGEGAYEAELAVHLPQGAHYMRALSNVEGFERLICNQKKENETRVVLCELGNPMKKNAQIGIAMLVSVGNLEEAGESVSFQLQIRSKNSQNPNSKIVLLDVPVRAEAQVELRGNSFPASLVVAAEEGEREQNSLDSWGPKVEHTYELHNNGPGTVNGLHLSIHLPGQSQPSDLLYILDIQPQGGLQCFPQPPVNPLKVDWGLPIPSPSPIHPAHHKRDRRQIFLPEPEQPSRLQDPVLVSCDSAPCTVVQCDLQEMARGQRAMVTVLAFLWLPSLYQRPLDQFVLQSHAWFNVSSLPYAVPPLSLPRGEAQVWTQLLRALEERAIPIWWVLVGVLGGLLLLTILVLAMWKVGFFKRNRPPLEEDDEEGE
Chain of thrombin-stimulated platelets (P05106 27-788): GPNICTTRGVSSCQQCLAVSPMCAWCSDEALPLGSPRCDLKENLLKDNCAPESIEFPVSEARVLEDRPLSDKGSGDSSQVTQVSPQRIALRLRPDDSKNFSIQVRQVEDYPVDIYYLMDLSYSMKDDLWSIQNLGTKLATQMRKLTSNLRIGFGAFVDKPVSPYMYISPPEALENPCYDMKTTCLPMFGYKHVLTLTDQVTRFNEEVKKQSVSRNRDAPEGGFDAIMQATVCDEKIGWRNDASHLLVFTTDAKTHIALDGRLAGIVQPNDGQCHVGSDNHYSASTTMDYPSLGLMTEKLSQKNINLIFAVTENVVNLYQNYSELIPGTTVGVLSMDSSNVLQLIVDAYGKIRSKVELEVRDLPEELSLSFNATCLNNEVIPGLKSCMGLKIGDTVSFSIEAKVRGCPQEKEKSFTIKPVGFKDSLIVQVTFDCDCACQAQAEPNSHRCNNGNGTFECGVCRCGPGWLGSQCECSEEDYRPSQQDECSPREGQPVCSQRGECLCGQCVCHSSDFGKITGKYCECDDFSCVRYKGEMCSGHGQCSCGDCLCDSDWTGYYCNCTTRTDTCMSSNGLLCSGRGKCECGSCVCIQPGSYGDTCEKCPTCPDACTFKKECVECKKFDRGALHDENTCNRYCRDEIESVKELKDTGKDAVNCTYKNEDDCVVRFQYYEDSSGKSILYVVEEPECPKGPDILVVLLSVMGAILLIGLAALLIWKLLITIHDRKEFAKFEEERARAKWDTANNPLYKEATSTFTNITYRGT

The term IC50 denotes the point on the concentration scale where inhibition reaches its midpoint. The term inhibition denotes the drop in the measured response relative to a control, in per cent.

Chain of fixed activated platelets (P08514 32-1039): as the sequence (P08514 32-1039) above
Chain of fixed activated platelets (P05106 27-788): as the sequence (P05106 27-788) above

Consider arg-gly-asp-ser, for which the “inhibiting thrombin-induced platelet aggregation” value in the assay on platelet aggregation was “capable of inhibiting thrombin-induced platelet aggregation”.

For the compound gly-arg-gly-asp-ser, the “inhibiting thrombin-induced platelet aggregation” value in the assay on platelet aggregation is on record as “capable of inhibiting thrombin-induced platelet aggregation”.

As to `CC(C)CCOC(=O)[C@H](CCCNC(=N)N)NC(=O)[C@H](CC(=O)O)NC(=O)CCCCCCCCNC(=N)N` [9-Guanidinononanoyl-L-aspartyl-L-arginine-3-methylbutyl ester], in assay [1], the IC50 is 1.7 µM and the inhibition at 25 µM turned out to be 97%. The IC50 in assay [2] came out at 0.15 µM.

For the compound `CC(C)COC(=O)[C@H](CCCNC(=N)N)NC(=O)[C@H](CC(=O)O)NC(=O)CCCCCCCCNC(=N)N` [9-guanidinononanoyl-L-aspartyl-L-arginine isobutyl ester], in assay [1], the IC50 was 0.54 µM and the inhibition at 25 µM amounted to 97%. Further, the IC50 in assay [2] was 0.625 µM.

In the case of `CC(C)[C@H](NC(=O)[C@H](CC(=O)O)NC(=O)CN(C)C(=O)CCCCCCNC(=N)N)C(=O)O` [7-Guanidinoheptanoyl-L-sarcosyl-L-aspartyl-L-valine], the inhibition at 25 µM in assay [1] is 14%. The IC50 in assay [2] worked out at 5.1 µM.

For `CC(C)[C@H](NC(=O)[C@H](CC(=O)O)NC(=O)C=CCCCCCNC(=N)N)C(=O)O` [8-Guanidinooct-2-enoyl-L-aspartyl-L-valine], the IC50 in assay [1] was found to be 0.29 µM; in assay [2], 0.84 µM. Moreover, the inhibition at 25 µM in assay [1] was found to be 96%.

On to `CC[C@H](C)[C@H](NC(=O)[C@H](CC(=O)O)NC(=O)CCCCCCCCNC(=N)N)C(=O)N[C@H](CCCNC(=N)N)C(=O)O` [9-Guanidinononanoyl-L-aspartyl-L-isoleucyl-D-arginine], for which the IC50 in assay [1] turned out to be 2 µM; in assay [2] it was 15 µM. Moreover, the inhibition at 25 µM in assay [1] amounted to 97%.

For the compound `CC(C)[C@H](NC(=O)[C@H](CC(=O)O)NC(=O)C=CCCCCCCCNC(=N)N)C(=O)O` [10-Guanidinodec-2-enoyl-L-aspartyl-L-valine], the IC50 was found to be 8.8 µM in assay [1] and 12 µM in assay [2]. Further, the inhibition at 25 µM in assay [1] came to 77%.

For `N=C(N)NCCCCCCCCC(=O)N[C@@H](CC(=O)O)C(=O)N[C@@H](Cc1ccccc1)C(=O)N[C@@H](CCCNC(=N)N)C(=O)O` [9-Guanidinononanoyl-L-aspartyl-L-phenylalanine-L-arginine], in assay [1], the IC50 was found to be 0.32 µM and the inhibition at 25 µM turned out to be 98%. For the same compound, in assay [2], the IC50 amounted to 6 µM.

For the compound `N=C(N)NCCCCCCCCC(=O)N[C@@H](CC(=O)O)C(=O)NCC(=O)N[C@@H](CCCNC(=N)N)C(=O)O` [9-Guanidinononanoyl-L-aspartyl-glycyl-L-arginine], the results for the IC50 in assay [1] and in assay [2] were 2.2 µM and 7 µM, respectively. For the same compound, the inhibition at 25 µM in assay [1] turned out to be 85%.

The values are drawn from patent US5332726A, “Antithrombotic peptides and pseudopeptides” (Rhone-Poulenc Rorer Pharmaceuticals Inc., priority 1992, dated 1994).
